In article PMC10288581 (Frontiers in Pharmacology, 2023):
Values joined by “and” are separate entries in the source; they are usually repeats but may differ in a detail not shown here. Equal values may be shown once. Read-outs that look alike come from different tables or passages of the source.

Tests used:
[1] = cited from earlier work
[2] = Single oral dose, randomized, crossover PK-DDI study of voriconazole with clarithromycin; plasma voriconazole by RP HPLC UV-Vis, non-compartmental analysis; format: in vivo, human; conditions: for Cmaax of voriconazole, Mean & std. Deviation / Erate (elimination rate) of voriconazole, Mean & std. Deviation / tmax (time to reach Cmax) of voriconazole, Mean & std. Deviation: single oral dose; for concentration at 0.5 h / concentration at 1 h / concentration at 1.5 h / concentration at 2 h / concentration at 3 h / concentration at 4 h / concentration at 6 h / concentration at 8 h / concentration at 24 h: male, oral, Voriconazole plasma concentration
Procedure: The study designed was a single oral dose, open-labeled, randomized, crossover, and consisted of 02 weeks of washouts in between for evaluating drug-drug interaction in healthy volunteers.
A 2-week washout period was allocated from day 2 to day 15 to avoid the carry-over effect. […] All volunteers took the medication with a glass of water (250 mL). On days 1 and 16 (treatment days), two and 6 hours after drug administration, standard breakfast and lunch were served to all volunteers, respectively.
After taking blood samples, immediately these samples were centrifuged (at 500 rpm for 10–15 min) to separate plasma from blood (RBC) and stored at −80°C till analysis.
The plasma samples were subjected to protein precipitation and drug extraction with acetonitrile (ACN). A fixed volume of plasma (200 μL), ACN (200 μL), and internal standard (i.e., 2 μg/mL of fluconazole), taken into Eppendorf tubes were vortexed (for 5 min) and kept in the centrifuge at 10,000 RPM for 10–15 min for protein separation. Their supernatant (organic layer) layer was cautiously separated and analyzed by the already developed method. Chromatographic conditions of the HPLC-UV method comprised of isocratic mobile-phase ACN: H2O in 60:40 v/v proportions at a flow rate of 1.5 mL/min and UV detection at 254 nm. Then each sample was analyzed at least three times using the Flexar-series HPLC system, Norwalk, USA, by utilizing a C-18 Perkin-Elmer® column (with particulars of 150 mm length, 4.6 mm inner diameter, and 5 μm particle size). The total run time for each sample was ≤7.0 min.
The pharmacokinetic (PK) parameters used for PK-DDI assessment and plasma drug concentration vs. time profile were analyzed statistically through a non-compartmental approach.Pharmacokinetics PK-Summit® (version 2.0.2; Summit Research Services, Ashland, OH) software was used to evaluate all pharmacokinetic parameters. The various non-compartmental pharmacokinetic (PK) parameters calculated were peak plasma concentration (Cmax, µg/mL), time to reach Cmax (tmax, h), the elimination half-life (E-t1/2, h), an area under the curve from time zero to infinity (AUC^0-∞, μg×h/mL), and the area under the concentration-time curve from time zero to time-t (AUC^0-t, μg×h/mL), mean residence time (MRT, h), elimination rate (Erate, 1/h), apparent clearance (CL/Kg, L/h/Kg) and apparent volume of distribution (Vd, L/Kg).
Descriptive statistical tests were performed using SPSS software (version 21.0; IBM Crop; SPSS®; 2012); for a non-compartmental approach Pharmacokinetics PK-Summit® (version 2.0.2; Summit Research Services, Ashland, OH) software and MS-Excel used for results evaluation, and such data were presented graphically. […] The SPSS software (version 21.0; IBM Crop; SPSS®; 2012) procedure MIXED was used with treatment and visits as a fixed effect and subject as a random effect using the Residual maximum likelihood REML method. Sharpiro-Wilk test was used to check the normality of PK parameters. Log transformation was applied to those PK parameters (such as Cmax, MRT, apparent Vd, and E-t1/2) which were not normally distributed. […] These differences were evaluated by the ratios of geometric means between treatments and used a 90% CI for these ratios.

clinical = conditions: human, in vivo
Text: After the second sequence of drug administration, follow-up data were collected for 2 weeks (from day 16 to day 30) from all volunteers regarding any side effects or toxicity-related issues. […] Blurring vision has been reported as a major side effect in the literature ([Theuretzbacher et al., 2006]). […] In the follow-up period, we carefully monitored the aspartate aminotransferase (AST) and alanine transaminase (ALT) biochemical test reports of that volunteer.

[3] = ref Geist et al., 2013; Hohmann et al., 2016; cited from earlier work
[4] = ref Geist et al., 2013; cited from earlier work
CYP3A4 = test system: CYP3A4; parameters: method as in Mikus et al., 2006; conditions: read-out: Michaelis-Menten constant (Km) of voriconazole oxidase activity; CYP3A4 expressed in human CYP enzyme; ref Mikus et al., 2006; cited from earlier work
[5] = increased, exact percentage not reported, ref Bouatou et al. (2014)
[6] = ref Kakuda et al., (2013), Calcagno et al., (2014)
[7] = increased, exact percentage not reported, ref Motta et al. (2016)
[8] = increased, exact percentage not reported, ref Yasu et al. (2016)
[9] = increased, exact percentage not reported, ref Heinz et al. (2007)
[10] = Voriz (Alone): voriconazole 200 mg × 2 tablets, n = 12
[11] = Voriz + CLRM: voriconazole 200 mg × 2 tablets + clarithromycin 500 mg tablet, n = 12
[12] = human, plasma, 400 mg, Series 1: voriconazole 400 mg alone
[13] = human, plasma, Series 2: voriconazole 400 mg along with clarithromycin 500 mg
[14] = with clarithromycin versus alone, stated as decrease

## CC[C@H]1OC(=O)[C@H](C)[C@@H](O[C@H]2C[C@@](C)(OC)[C@@H](O)[C@H](C)O2)[C@H](C)[C@@H](O[C@@H]2O[C@H](C)C[C@H](N(C)C)[C@H]2O)[C@](C)(O)C[C@@H](C)CN(C)[C@H](C)[C@@H](O)[C@]1(C)O [Azithromycin]
[1]; ref Purkins et al. (2003d)
  ↑AUC of voriconazole (increase by effector drug): *↑8%
  ↑Cmax of voriconazole (increase by effector drug): *↑18%

## CN/C(=N/CCSCc1nc[nH]c1C)NC#N [Cimetidine]
[1]; ref Purkins et al. (2003b)
  ↑AUC of voriconazole (increase by effector drug): *↑22.5%
  ↑Cmax of voriconazole (increase by effector drug): *↑18.5%

## CC[C@H]1OC(=O)[C@H](C)[C@@H](O[C@H]2C[C@@](C)(OC)[C@@H](O)[C@H](C)O2)[C@H](C)[C@@H](O[C@@H]2O[C@H](C)C[C@H](N(C)C)[C@H]2O)[C@](C)(O)C[C@@H](C)C(=O)[C@H](C)[C@@H](O)[C@]1(C)O [Erythromycin]
[1]; ref Purkins et al. (2003d)
  ↑AUC of voriconazole (increase by effector drug): *↑1%
  ↑Cmax of voriconazole (increase by effector drug): *↑8%

## COc1ccc2nc([S@@+]([O-])Cc3ncc(C)c(OC)c3C)[nH]c2c1 [Esomeprazole]
[1]; [5]
  ↑AUC of voriconazole (increase by effector drug): ↑ ^NR*
  ↑Cmax of voriconazole (increase by effector drug): ↑ ^NR*

## Cc1cc(C#N)cc(C)c1Oc1nc(Nc2ccc(C#N)cc2)nc(N)c1Br [Etravirine]
[1]; [6]
  ↑AUC of voriconazole (increase by effector drug): *↑14%
  ↑Cmax of voriconazole (increase by effector drug): *↑23%

## O=C(CCCN1CCC(O)(c2ccc(Cl)cc2)CC1)c1ccc(F)cc1 [Haloperidol]
[1]; [7]
  ↑AUC of voriconazole (increase by effector drug): ↑ ^NR*
  ↑Cmax of voriconazole (increase by effector drug): ↑ ^NR*

## Cc1c(OCC(F)(F)F)ccnc1C[S+]([O-])c1nc2ccccc2[nH]1 (stereo not shown) [Lanoprazole]
[1]; [8]
  ↑AUC of voriconazole (increase by effector drug): ↑ ^NR*
  ↑Cmax of voriconazole (increase by effector drug): ↑ ^NR*

## COc1ccc2[nH]c([S+]([O-])Cc3ncc(C)c(OC)c3C)nc2c1 (stereo not shown) [Omeprazole]
[1]; ref Wood et al. (2003)
  ↑AUC of voriconazole (increase by effector drug): *↑41%
  ↑Cmax of voriconazole (increase by effector drug): *↑15%

## COc1ccnc(C[S+]([O-])c2nc3ccc(OC(F)F)cc3[nH]2)c1OC (stereo not shown) [Pantoprazole]
[1]; [9]
  ↑AUC of voriconazole (increase by effector drug): ↑ ^NR*
  ↑Cmax of voriconazole (increase by effector drug): ↑ ^NR*

## CNC(=C[N+](=O)[O-])NCCSCc1ccc(CN(C)C)o1 [Ranitidine]
[1]; ref Purkins et al. (2003b)
  ↑AUC of voriconazole (increase by effector drug): *↑4%
  ↑Cmax of voriconazole (increase by effector drug): *↑3.5%

## C[C@@H](c1ncncc1F)[C@](O)(Cn1cncn1)c1ccc(F)cc1F [voriconazole, (2R, 3S) -2-(2,4-difluorophenyl) -3-(5-fluora-4pyrimidinyl) -1-(1H −1,2,4-trizole-1-yl) -2-butanol]
[2]; Voriz (Alone): voriconazole 200 mg × 2 tablets, fasted healthy male volunteers n = 12
  Cmaax of voriconazole, Mean & std. Deviation: 2.52 ± 0.21 µg/mL
[2]; [10]
  Erate (elimination rate) of voriconazole, Mean & std. Deviation: 0.09 h⁻¹ and 0.09 ± 0.02 h⁻¹
  tmax (time to reach Cmax) of voriconazole, Mean & std. Deviation: 2.00 ± 0 h and 2 h
[2]; Voriz + CLRM vs Voriz (Alone)
  AUC0-t of voriconazole, % difference: 16%
  Apparent Vd/kg of voriconazole, % difference: −23%
  Cmaax of voriconazole, % difference: 52%
  MRT of voriconazole, % difference: −10%
  tmax of voriconazole, % difference: −25%
[2]; [11]
  Cmaax of voriconazole, Mean & std. Deviation: 3.84 ± 0.562 µg/mL
  Erate (elimination rate) of voriconazole, Mean & std. Deviation: 0.11 h⁻¹ and 0.11 ± 0.02 h⁻¹
  tmax (time to reach Cmax) of voriconazole, Mean & std. Deviation: 1.50 ± 0 h and 1.5 h
[2]; human, plasma, po, 400 mg
  AUC(0-inf): 9090 ± 790 ng·h/mL
  AUC(0-t): 8600 ± 720 ng·h/mL
  MRT: 6.16 ± 0.95 h
  half-life: 476 ± 31.8 min
[2]; [12]
  concentration at 0.5 h: 225 ng/mL
  concentration at 1 h: 1020 ng/mL
  concentration at 1.5 h: 1890 ng/mL
  concentration at 2 h: 2520 ng/mL
  concentration at 3 h: 1320 ng/mL
  concentration at 4 h: 781 ng/mL
  concentration at 6 h: 401 ng/mL
  concentration at 8 h: 170 ng/mL
  concentration at 24 h: 39.1 ng/mL
[2]; [13]
  concentration at 0.5 h: 378 ng/mL
  concentration at 1 h: 2040 ng/mL
  concentration at 1.5 h: 3840 ng/mL
  concentration at 2 h: 2500 ng/mL
  concentration at 3 h: 995 ng/mL
  concentration at 4 h: 661 ng/mL
  concentration at 6 h: 433 ng/mL
  concentration at 8 h: 224 ng/mL
  concentration at 24 h: 41.8 ng/mL
[2]; [14]
  decrease in tmax of voriconazole: 25%
  decrease of E-t1/2 of voriconazole: 26%
  decrease of MRT of voriconazole: 10%
  reduction (decrease) in the apparent volume of distribution (Vd) of voriconazole: 23%
clinical
  Side effect: blurred vision: Blurred vision was observed in two volunteers
  Side effect: dizziness: One of our volunteers had felt dizziness
clinical; male
  Cmax: 5000 ng/mL
  Duration of blurred vision: 10 to 15 min
[3]
  oral bioavailability (B.A): 96%
[4]
  protein binding: 58%
CYP3A4
  Km: 235 µM
